{"source": "patent US12325744B2", "about": "“Methods for reducing post-operative cognitive dysfunction (POCD)” (The Kennedy Trust for Rheumatology Research, priority 2010, dated 2025)", "type_in_all_cases": "in vivo", "key": {"C57BL/6 male mice [1]": {"tested_on": "C57BL/6 male mice", "test": "Trace fear conditioning, contextual fear response after LPS injection", "details": "LPS within 30 min after training, tested day 3, IL-1Ra pre-treatment", "experimental": "(§1) Treatment. LPS derived from Escherichia Coli endotoxin ([…], InvivoGen, USA, 1 mg/kg) was dissolved in normal saline and injected intraperitoneally. IL-1Ra (Amgen, Anakinra 100 mg/kg, Nederlands) was given subcutaneously immediately before LPS administration. Dose response curve from LPS or IL-1Ra was obtained from our pilot studies to provoke or to suppress moderate degree of microglia activation respectively. Control animals were injected with equivalent volumes (0.1 ml) of saline. Mice from each treatment group were randomly assigned for assessment of either cytokine response or cognitive behavior, in order to obviate possible confounding effects of behavioral testing on inflammatory markers.\nBehavioral measurement (conditioning). The behavioral study was conducted using a dedicated conditioning chamber (Med Associates Inc., USA). Mice were trained and tested on separate days. LPS was injected within 30 minutes following training. […] Three days after training, mice were returned to the same chamber in which training occurred (context), and freezing behavior was recorded. […] Approximately 3 h later, freezing was recorded in a novel environment and in response to the cue (tone). The auditory cue was then presented for 3 min, and freezing scored again. Freezing scores for each subject were expressed as a percentage for each portion of the test. […]"}, "IL-1β": {"tested_on": "IL-1β", "test": "Plasma (systemic) IL-1β by ELISA after tibial surgery", "details": "wild type mice, minocycline 40 mg/kg i.p., enrofloxacin 10 mg/kg or IL-1Ra 100 mg/kg given prior to surgery, vs surgery alone", "excerpt": "Mice were subjected to an open tibial fracture of the left hind paw with intramedullary fixation in aseptic conditions under general anaesthesia with isoflurane and analgesia with buprenorphineas previously described^18. Other groups of animals were not subjected to any intervention (naïve), or received anesthetic/analgesia alone, or underwent surgery with concurrent administration of minocycline, enrofloxacin, or IL-1 receptor antagonist (IL-1Ra). (For further details please refer to supplemental methods).\nIL-6, TNF-α and IL-1β were measured by ELISA^19 (Biosource, CA; Bender Medsystem, CA, respectively). Hippocampal IL-1β was measured by ELISA (Bender Medsystem, CA), as previously described^20. To confirm reliability of dilution linearity and spike recovery cytokine measurement were also performed in mice in which inflammation was induced with i.p. LPS (0111:B4, Invivogen, CA). (For further details please refer to supplemental methods).\nMice were randomly assigned to the following groups: surgery under general anesthesia (S), surgery under general anesthesia plus minocycline (M), surgery under general anesthesia plus enrofloxacin (E), surgery under general anesthesia plus interleukin-1 receptor antagonist (IL-1Ra) (I), surgery in IL1R^−/− mice under general anesthesia (K), general anesthesia without surgery (A), and no intervention (naïve wild-type, or naïve IL1R^−/−). Under aseptic conditions, groups of mice were subjected to an open tibial fracture of the left hind paw with an intramedullary fixation as previously described^2. Briefly, isoflurane (Abbot Laboratories Ltd., Queensborough, Kent, UK) 2.1% in air (1.5 MAC)^3 and buprenorphine (Reckitt Benckiser Healthcare Ltd, Hull, UK) 0.1 mg/kg subcutaneously (sc), were given to provide both surgical anesthesia and extended post-operative analgesia for the surgical intervention and post-surgical recovery. After shaving the overlying skin and disinfecting with chlorhexidine gluconate 0.5% and isopropyl alcohol 70% (PDI, Orangeburg, NY, USA) a fracture of the tibial shaft was created under direct vision. […]"}, "C57BL/6 male mice [2]": {"tested_on": "C57BL/6 male mice", "test": "Observation of sickness behavior after LPS injection", "details": "LPS 1 mg/kg i.p.; IL-1Ra pre-treatment", "experimental": "Animals. All the experiments were conducted under the UK Home Office approved license. Wild type C57BL/6 male mice, 12-14 weeks old, weighting 25-30 g were used and housed in groups of five in a 12-h-12-h light dark cycle, with controlled temperature and humidity with free access to food and water. IL-1R^−/− (kindly provided by Nancy Rothwell, University of Manchester) were bred in-house on a C57BL/6 background and age-matched to wild type counterparts. Seven days of acclimatization were allowed before starting any experiment. All the animals were checked on a daily basis and evidence of poor grooming, huddling, piloerection, weight loss, back arching and abnormal activity, were excluded in the experiments.\nas §1, with “Mice from each treatment group were randomly assigned for assessment of either cytokine response or cognitive behavior, in order to obviate possible confounding effects of behavioral testing on inflammatory markers.” left out"}}, "note": "Entries after “also recorded” stand apart in the source; their conditions may differ.", "data": [{"substance": "IL-1Ra: IL-1 receptor antagonist (Amgen, Anakinra)", "values": [{"measurement": "Contextual fear response (freezing) after LPS, effect of IL-1Ra", "setting": "C57BL/6 male mice [1]", "result": "significantly ameliorated the memory retention at day 3; also recorded: significantly ameliorated this cognitive dysfunction"}, {"measurement": "Plasma IL-1β after surgery, effect of treatment", "setting": "IL-1β", "result": "did not increase circulating IL-1β; also recorded: Surgery did not induce a significant increase of IL-1β at 24 h"}, {"measurement": "Symptoms of sickness behavior after LPS, effect of IL-1Ra", "setting": "C57BL/6 male mice [2]", "result": "abolished the main symptoms of sickness behavior"}]}]}
